Measured values published in article PMC5719405, “Sex-related pharmacokinetic differences and mechanisms of metapristone (RU486 metabolite)” (Scientific Reports, 2017).
Like-named read-outs stand apart in the source and are kept apart here.

Key:
[1] = Single-dose pharmacokinetics of metapristone in rats (p.o. and i.v.), non-compartmental analysis; assay type: in vivo, Sprague Dawley (SD) rats; conditions: for MRT last: read-out: MRT (0-t)
Protocol: (§1) For pharmacokinetic study, rats were fasted overnight with free access to water using procedures reported previously. Ninety-six SD rats (forty-eight males and forty-eight females) were randomly divided into […] single-dose groups. Rats (six animals/sex/dose) were given a single oral dose of 22.5, 45 and 90 mg/kg metapristone (in soybean oil solution) by intragastric administration or 10 mg/kg metapristone by intravenous bolus injection. Rat blood samples (0.25 mL) were collected from the ocular vein into heparinized tubes prior to and at 0 (before administration), 0.5, 1.0, 1.5, 2.0, 4.0, 6.0, 8.0, 12, 24, 36 and 48 h post-dosing in female rats or 0.5, 1.0, 1.5, 2.0, 4.0, 6.0, 8.0, 12, 24, 30 and 36 h post-dosing in male rats. In the repeated dose study twenty-four rats (six animals/sex/dose) received the same dosing regimen at 45 mg/kg metapristone for 10 days. Blood samples were collected after oral administration on day 1 and 10 at T max. The samples were stored at −80 °C until analysis. Beagle dogs (three animals/sex/dose) were dosed by gavage at 5.62, 11.25, 22.5 mg/kg metapristone (in soybean oil solution). Dog blood (0.25 mL) was withdrawn from the jugular vein at 0.5, 1.0, 2.0, 4.0, 6.0, 8.0, 10, 12, 24 and 48 h after a single oral administration.
The plasma samples obtained by centrifugation at 4000 g for 10 min and stored at −80 °Cuntil analysis. To each 100 µL of plasma sample, 50 µL of internal standard solution were added. Metapristone was then separated and analyzed by the LC/MS/MS method according to the previously described procedures. Peak area ratios of metapristone to the internal standard were plotted against theoretical concentrations. The maximum plasma concentration (C max), the time to reach C max (T max) were determined directly from experimental data. The other pharmacokinetic parameters such as elimination half-life (t 1/2), and mean residence time (MRT) were calculated by using the non-compartmental pharmacokinetics data analysis software of DAS version 3.2 (Bio Guider Co., Shanghai, China). The area under the plasma concentration-time curve from zero to infinity was calculated by using the linear trapezoidal rule with extrapolation to infinity with terminal constant eliminate rate (k e). Bioavailability was calculated as (AUCp.o./AUCi.v.) x (dosei.v./ dosep.o.) 100% as we previously described.

[2] = Repeated 10-day oral dosing, accumulation of metapristone in blood; assay type: in vivo; conditions: rats, 45 mg/kg/day p.o. for 10 days, 6 h post dosing
Protocol: In order to determine whether metapristone accumulated in blood over a long period of multiple dose administration, metapristone levels in blood were monitored at 6 h post dosing on day 1 and 10 during a consecutive 10-day oral dosing period with metapristone at 45 mg/kg/day.
as §1, with “Beagle dogs (three animals/sex/dose) were dosed by gavage at 5.62, 11.25, 22.5 mg/kg metapristone (in soybean oil solution). Dog blood (0.25 mL) was withdrawn from the jugular vein at 0.5, 1.0, 2.0, 4.0, 6.0, 8.0, 10, 12, 24 and 48 h after a single oral administration.” left out

[3] = Tissue distribution study with metapristone; assay type: in vivo, SD rats; conditions: female rats, 45 mg/kg single oral dose
Protocol: Sixteen SD rats (four females/group) were dosed by gavage with 45 mg/kg of metapristone to carry out tissue distribution study, as we previously described. Rats were sacrificed at 6 h and 24 h after dosing in order to collect blood, heart, liver, spleen, lung, kidney, brain, intestine and ovary for quantitative analysis of metapristone concentrations. Tissue samples were immediately washed in normal saline to remove the blood or content, and blotted dry with filter paper. Tissue samples (0.2 g) were individually homogenized with normal saline (0.8 mL). Tissue homogenates (100 µL) were processed as the plasma samples. The detailed method validation for analysis of metapristone in plasma, tissue homogenates, and liver microsomal samples is provided in the Supplementary materials.

[4] = Sprague-Dawley, rat, plasma, iv, female rats, i.v. 10 mg/kg
[5] = Sprague-Dawley, rat, plasma, iv, male rats, i.v. 10 mg/kg
[6] = Sprague-Dawley, rat, plasma, po, female rats, p.o. 22.5 mg/kg
[7] = Sprague-Dawley, rat, plasma, po, female rats, p.o. 45 mg/kg
[8] = Sprague-Dawley, rat, plasma, po, female rats, p.o. 90 mg/kg
[9] = Sprague-Dawley, rat, plasma, po, male rats, p.o. 22.5 mg/kg
[10] = Sprague-Dawley, rat, plasma, po, male rats, p.o. 45 mg/kg
[11] = Sprague-Dawley, rat, plasma, po, male rats, p.o. 90 mg/kg

AUC(0-inf) [1, 4]: 9.81 ± 2.34 µg·h/mL | AUC(0-t) [1, 4]: 9.75 ± 2.32 µg·h/mL | Cmax [1, 4]: 6.05 ± 0.67 µg/mL | half-life [1, 4]: 5.18 ± 3.41 h | MRT last [1, 4]: 1.68 ± 0.72 h | AUC(0-inf) [1, 5]: 5.46 ± 1.15 µg·h/mL | AUC(0-t) [1, 5]: 5.52 ± 1.15 µg·h/mL | Cmax [1, 5]: 4.05 ± 0.25 µg/mL | half-life [1, 5]: 9.45 ± 4.99 h | MRT last [1, 5]: 1.56 ± 0.41 h | AUC(0-inf) [1, 6]: 4.23 ± 1.64 µg·h/mL | AUC(0-t) [1, 6]: 4.05 ± 1.62 µg·h/mL | Cmax [1, 6]: 0.27 ± 0.05 µg/mL | half-life [1, 6]: 10.8 ± 3.2 h | bioavailability ([1]; Sprague-Dawley, rat, plasma, po, female rats, p.o. 22.5 mg/kg, read-out: F): 18.5% | MRT last [1, 6]: 14.4 ± 5.65 h | Tmax ([1]; Sprague-Dawley, rat, plasma, po, female rats, p.o. 22.5 mg/kg, read-out: T max): 9 ± 7.5 h | Vd/F ([1]; Sprague-Dawley, rat, plasma, po, female rats, p.o. 22.5 mg/kg, read-out: V d /F): 77.3 ± 36 L/kg | AUC(0-inf) [1, 7]: 11.3 ± 3.17 µg·h/mL | AUC(0-t) [1, 7]: 9.63 ± 4.54 µg·h/mL | Cmax [1, 7]: 0.65 ± 0.22 µg/mL | half-life [1, 7]: 10.7 ± 3.71 h | bioavailability ([1]; Sprague-Dawley, rat, plasma, po, female rats, p.o. 45 mg/kg, read-out: F): 22% | MRT last [1, 7]: 13.7 ± 6.91 h | Tmax ([1]; Sprague-Dawley, rat, plasma, po, female rats, p.o. 45 mg/kg, read-out: T max): 11 ± 12.3 h | Vd/F ([1]; Sprague-Dawley, rat, plasma, po, female rats, p.o. 45 mg/kg, read-out: V d /F): 67.6 ± 47.6 L/kg | AUC(0-inf) [1, 8]: 15.6 ± 2.1 µg·h/mL | AUC(0-t) [1, 8]: 14.9 ± 2.19 µg·h/mL | Cmax [1, 8]: 0.79 ± 0.2 µg/mL | half-life [1, 8]: 8.83 ± 7.3 h | bioavailability ([1]; Sprague-Dawley, rat, plasma, po, female rats, p.o. 90 mg/kg, read-out: F): 16.9% | MRT last [1, 8]: 15.6 ± 5.82 h | Tmax ([1]; Sprague-Dawley, rat, plasma, po, female rats, p.o. 90 mg/kg, read-out: T max): 7.58 ± 3.38 h | Vd/F ([1]; Sprague-Dawley, rat, plasma, po, female rats, p.o. 90 mg/kg, read-out: V d /F): 86.3 ± 62.9 L/kg | AUC(0-inf) [1, 9]: 4.47 ± 1.11 µg·h/mL | AUC(0-t) [1, 9]: 3.57 ± 1.09 µg·h/mL | Cmax [1, 9]: 0.03 ± 0.01 µg/mL | half-life [1, 9]: 8 ± 2.4 h | bioavailability ([1]; Sprague-Dawley, rat, plasma, po, male rats, p.o. 22.5 mg/kg, read-out: F): 28.7% | MRT last [1, 9]: 11.2 ± 2.12 h | Tmax ([1]; Sprague-Dawley, rat, plasma, po, male rats, p.o. 22.5 mg/kg, read-out: T max): 5.7 ± 2 h | Vd/F ([1]; Sprague-Dawley, rat, plasma, po, male rats, p.o. 22.5 mg/kg, read-out: V d /F): 804 ± 267 L/kg | AUC(0-inf) [1, 10]: 2.04 ± 1.33 µg·h/mL | AUC(0-t) [1, 10]: 1.96 ± 1.32 µg·h/mL | Cmax [1, 10]: 0.14 ± 0.1 µg/mL | half-life [1, 10]: 8.11 ± 4.31 h | bioavailability ([1]; Sprague-Dawley, rat, plasma, po, male rats, p.o. 45 mg/kg, read-out: F): 7.9% | MRT last [1, 10]: 13.9 ± 1.17 h | Tmax ([1]; Sprague-Dawley, rat, plasma, po, male rats, p.o. 45 mg/kg, read-out: T max): 7.7 ± 2.9 h | Vd/F ([1]; Sprague-Dawley, rat, plasma, po, male rats, p.o. 45 mg/kg, read-out: V d /F): 768 ± 127 L/kg | AUC(0-inf) [1, 11]: 8.92 ± 0.96 µg·h/mL | AUC(0-t) [1, 11]: 8.76 ± 0.07 µg·h/mL | Cmax [1, 11]: 0.55 ± 0.18 µg/mL | half-life [1, 11]: 4.62 ± 3 h | bioavailability ([1]; Sprague-Dawley, rat, plasma, po, male rats, p.o. 90 mg/kg, read-out: F): 17.6% | MRT last [1, 11]: 12.8 ± 2.43 h | Tmax ([1]; Sprague-Dawley, rat, plasma, po, male rats, p.o. 90 mg/kg, read-out: T max): 10.3 ± 2.7 h | Vd/F ([1]; Sprague-Dawley, rat, plasma, po, male rats, p.o. 90 mg/kg, read-out: V d /F): 92.5 ± 91.7 L/kg | bioavailability ([1]; Sprague-Dawley, rat, plasma, male rats, range over three oral doses, read-out: Oral bioavailability): 2.1 to 17.6% | Tmax ([1]; Sprague-Dawley, rat, plasma, rats, both sexes, oral doses of Table 1, read-out: T max after oral absorption): 5.7 to 11 h | CL/F ([1]; female rats, i.v. 10 mg/kg): 1.06 ± 0.25 L/h/kg | Vd/F ([1]; female rats, i.v. 10 mg/kg): 8.02 ± 6.13 L/kg | CL/F ([1]; female, Sprague-Dawley, rat, plasma, po, 22.5 mg/kg, female rats, p.o. 22.5 mg/kg, read-out: CL/F (converted)): 7.03 L/h/kg | CL/F ([1]; female, Sprague-Dawley, rat, plasma, po, 45 mg/kg, female rats, p.o. 45 mg/kg, read-out: CL/F (converted)): 5.25 L/h/kg | CL/F ([1]; female, Sprague-Dawley, rat, plasma, po, 90 mg/kg, female rats, p.o. 90 mg/kg, read-out: CL/F (converted)): 4.85 L/h/kg | decrease of CL/F for female rats versus male rats ([1]; i.v. 10 mg/kg): 87% | CL/F ([1]; male rats, i.v. 10 mg/kg): 1.98 ± 0.39 L/h/kg | Vd/F ([1]; male rats, i.v. 10 mg/kg): 24.34 ± 5.52 L/kg | CL/F ([1]; male rats, p.o. 45 mg/kg, 45 mg/kg): 46.93 ± 20.7 L/h/kg | CL/F ([1]; male, Sprague-Dawley, rat, plasma, po, 22.5 mg/kg, male rats, p.o. 22.5 mg/kg, read-out: CL/F (converted)): 69.6 L/h/kg | CL/F ([1]; male, Sprague-Dawley, rat, plasma, po, 45 mg/kg, male rats, p.o. 45 mg/kg, read-out: CL/F (converted)): 46.9 L/h/kg | CL/F ([1]; male, Sprague-Dawley, rat, plasma, po, 90 mg/kg, male rats, p.o. 90 mg/kg, read-out: CL/F (converted)): 11.7 L/h/kg | increase of C max for female rats versus male rats ([1]; p.o. 45 mg/kg): 364% | accumulation of metapristone in blood, day 10 versus day 1 [2]: about 6 fold | concentration at 6 h ([3]; Sprague-Dawley, rat, liver, 6 h): 222000 ± 23000 ng/g | metapristone in rat brain [3]: detected
Compound: CC#C[C@]1(O)CC[C@H]2[C@@H]3CCC4=CC(=O)CCC4=C3[C@@H](c3ccc(NC)cc3)C[C@@]21C [metapristone, N-monodemethyl mifepristone]
